Experimental findings from EP0976747A2, “Use of 5HT-1F receptor antagonists for treating anxiety disorders” (ELI LILLY AND COMPANY, priority 1998, dated 2000) are described below.

This assay concerns male Wister rats. In words: Social interaction test of experimental anxiety. The format is in vivo. Conditions: 20 mg/kg intraperitoneal, tested 1 hour after dosing, 5 minutes observation, compared to baseline, significance at p<0.01. How it is done: The procedure for this assay is summarized below.
All experiments were performed on male Wister rats (Harlan laboratories, 275-300 gm). The rats were individually housed in a temperature controlled room (72°F) on a 12 hour day/night cycle. The rats were provided food and water ad libitum.
Approximately 40 mg of the test compound was weighed into a 20 mL glass vial. To this solid were added 80µL of lactic acid (85%). The mixture was sonicated for 2 minutes and then 4mL of distilled water was added in lmL increments. Sonication of this mixture was continued until all of the solid had dissolved. Following sonication, the pH of the mixture was raised by the addition of dilute aqueous sodium hydroxide until the mixture reached a pH of about 5.5.
Each rat was weighed and the test compound administered by intraperitoneal injection at 20 mg/kg of body weight. […]
Experimental anxiety was measured by a social interaction test. […] A video camera was fixed above the social interaction box and all behavioral tests were recorded. […] The amount of time that the rat which received test compound spent interacting (i.e. grooming, sniffing, crawling upon) with the other rat was recorded. […]
Social interaction data was analyzed as total interaction time in seconds and the raw scores were compared between baseline and treatment. […]

As for `O[C@H](COc1ccc2ccccc2c1)CN1CCC(O)(c2cnc3ccccc3c2)CC1` [Example 37, 1-((2S)-hydroxy-3-(naphth-2-yloxy)prop-1-yl)-4-hydroxy-4-(quinolin-3-yl)piperidine], the social interaction time entry was “significantly increase social interaction time as compared to baseline”.
